Read-outs that look alike come from different tables or passages of the source.
Legend:
muscarinic M3 receptor [1] = molecular target: T1, muscarinic M3 receptor (Rattus norvegicus, UniProt P08483); experiment: Inhibition of binding to muscarinic M3 receptors ([3H]-N-methylscopolamine, lacrimal gland membrane); parameters: a membrane specimen from the lacrimal glands was used as the membrane specimen; from tissue; host or cells: rat lacrimal gland membranes (SD rat)
Description: In these tests, their inhibitory and antagonistic effects were expressed in terms of the dissociation constant (Ki) of each test compound which was calculated from its concentration (IC50 ) causing a 50% inhibition of the binding of a labeled ligand to muscarinic receptors. As the labeled ligand, [^3 H]-telenzepine was used for the muscarinic M1 receptors and [^3 H]-N-methylscopolamine for the muscarinic M2 and M3 receptors.
A male SD strain rat (purchased from Nippon Charles River Co., Ltd.), weighing about 250-350 g, was sacrificed, and the cerebral cortex, heart and lacrimal glands were excised. Using a Polytron (setting 5), each organ was homogenized in 5 volumes of an ice-cold buffer solution (pH 7.4) containing 50 mM tris-HCl, 5 mM magnesium chloride, 1 mM trisodium ethylenediaminetetraacetate and 20% sucrose. The resulting homogenate was centrifuged at 3,000×g at 4° C. for 15 minutes, and the supernatant was filtered through gauze and ultracentrifuged at 100,000×g at 4° C. for 45 minutes. The resulting precipitate was suspended in an ice-cold buffer solution (pH 7.4) containing 50 mM tris-HCl and 5 mM magnesium chloride (hereinafter referred briefly to as "tris buffer") and ultracentrifuged at 100,000×g at 4° C. for 45 minutes. The resulting precipitate was suspended in tris buffer so as to give a concentration of 50 mg/ml and stored at -80° C. till use. The membrane specimens so prepared were thawed prior to use and submitted to tests for the inhibition of binding to muscarinic receptors.
4) Tests for the inhibition of binding to the muscarinic M2 receptors
The nonspecific binding of [^3 H]-N-methylscopolamine to receptors was determined by the addition of 1 mM N-methylscopolamine.

[2] = tested on: M1 receptors (vas deferens); experiment: Antagonism against M1 receptors in an isolated rabbit vas deferens; details: in vitro, agonist McN A-343, 10 min
Description: 1) Tests for antagonism against the M1 receptors in an isolated rabbit vas deferens
These tests were performed according to an ordinary method. A male Japanese albino rabbit (weighing bout 3 kg) was killed by exsanguination from a femoral artery under anesthesia with pentobarbital, and the vasa deferentia were excised. Portions (1 cm long) thereof adjacent to the prostate were used as vas deferens preparations. A preparation was longitudinally suspended in a Magnus tube filled with 20 ml of Krebs-Henseleit nutrient solution [gassed with 95% O2 -5% CO2 and kept at 32° C.; containing […] yohimbine (a2 antagonist)] with an initial tension of 1.0 g. The tension of the preparation was recorded isometrically. After the preparation was equilibrated for 30 minutes, electrical stimuli (0.5 ms, 30 V) were applied thereto by means of a bipolar electrode to induce contractions at intervals of 20 seconds. […] Responses to McN A-343 were expressed as percentages based on the amount of contraction before administration of McN A-343. The antagonistic potency (KB value) of the test compound was determined from the degree of shift of the dose-response curve obtained by treatment with the test compound.

muscarinic M3 receptor [3] = molecular target: T1, muscarinic M3 receptor; experiment: in vivo; parameters: from tissue; host or cells: living rat, airways; details: iv, read-out: Salivary secretion ID50
Description: (§1) Tests for antagonism against muscarinic M3 receptor (in vivo)
2) Tests for salivary secretion in rats
Five- to seven-weeks-old male rats of the Sprague-Dawley strain were anesthetized with sodium pentobarbital (65 mg/kg, i.p.), and a cannula was inserted into the right jugular vein for purposes of drug administration. A test compound was administered intravenously. Five minutes later, carbachol (10 μg/kg, i.v.) was administered to evoke salivary secretion. For each rat, saliva collection was started immediately after carbachol administration and continued for ten minutes. This was carried out by inserting glass capillaries (Drummond, 100 μl) into the oral cavity of the rat at intervals of one minute. The amount of collected saliva was determined on the assumption that a length of 75 mm of the glass capillary corresponded to 100 μl. Physiological saline was used in the control group. The ID50 value was calculated from the dose-response curve of the test compound using probit analysis and defined as the drug dose that inhibited the carbachol-induced salivation in the control group by 50%.

muscarinic M3 receptor [4] = molecular target: T1, muscarinic M3 receptor; experiment: in vivo; parameters: from tissue; host or cells: living rat, airways; details: iv, read-out: Mydriasis ED50
Description: as §1
3) Tests for mydriasis in rats
Five- to seven-weeks-old male rats of the Sprague-Dawley strain were anesthetized with pentobarbital (65 mg/kg, i.p.), and a cannula was inserted into the right jugular vein for purposes of drug administration. By using a graduated scale (pulilometer), pupillary responses to drugs were measured to the nearest 0.1 mm at the point of the greatest diameter. […] Responses were expressed as percentages of the maximal increase in pupil diameter induced by administration of atropine (30 μg/kg, i.v.). The ED50 value was calculated from the dose-response curve of the test compound using probit analysis and defined as the drug dose that induced 50% of the maximal response.

T1 sequence (P08483 whole entry): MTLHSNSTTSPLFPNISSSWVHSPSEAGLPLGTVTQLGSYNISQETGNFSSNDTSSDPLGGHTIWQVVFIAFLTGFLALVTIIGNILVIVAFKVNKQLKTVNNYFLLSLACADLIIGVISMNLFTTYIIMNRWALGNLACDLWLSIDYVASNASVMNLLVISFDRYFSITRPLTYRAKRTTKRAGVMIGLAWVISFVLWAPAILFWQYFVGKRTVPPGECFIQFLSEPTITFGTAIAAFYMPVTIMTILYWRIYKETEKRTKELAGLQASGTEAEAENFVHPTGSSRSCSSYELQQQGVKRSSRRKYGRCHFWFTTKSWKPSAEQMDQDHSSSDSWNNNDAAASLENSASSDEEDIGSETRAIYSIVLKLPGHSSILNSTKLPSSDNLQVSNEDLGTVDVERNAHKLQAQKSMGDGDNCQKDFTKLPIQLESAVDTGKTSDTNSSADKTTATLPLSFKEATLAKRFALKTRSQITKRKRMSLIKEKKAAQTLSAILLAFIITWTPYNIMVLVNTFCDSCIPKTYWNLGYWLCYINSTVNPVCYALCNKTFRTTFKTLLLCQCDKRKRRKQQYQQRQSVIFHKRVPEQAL

`CC(C)=CCCN1CCC(NC(=O)C(O)(c2ccccc2)C2CCC2)CC1` (stereo not drawn) [Example 1, N-[1-(4-methyl-3-pentenyl)-piperidin-4-yl]-2-cyclobutyl-2-hydroxy-2-phenylacetamide] gave a Ki (muscarinic M3 receptor [1]) of 8.9 nM, an M1/M3 (muscarinic M3 receptor [1]; ratio of binding Ki, M1 over M3) of 5.0 and an M2/M3 (muscarinic M3 receptor [1]; ratio of binding Ki, M2 over M3) of 96. For the same molecule, the Kb [2] was 120 nM, the ED50 (muscarinic M3 receptor [3]) was 0.19 mg/kg and the ED50 (muscarinic M3 receptor [4]) was 1.4 mg/kg.
